Source: patent publication US20090005443A1, “Treatment of Depression” (priority 2007, published 2009)
“And” between values parts separate entries of the source, which are not always exact repeats. Equal entries are not always repeated.

System: Patients with MDD
Type: in vivo
Conditions: for Ham-D change: baseline to end value, oral tablets, no visit qualifier given; for Ham-D change / Ham-D change (by penultimate visit): individual MDD patient; for Ham-D change (by penultimate visit): baseline to value by penultimate visit; for Reduction in patient depression, measured using the Hamilton-D rating scale: the five patients who completed the trial protocol (three tramadol, two amitriptyline)
Procedure: A Single Centre, Open Labelled, Comparative, Parallel Pilot Study to Evaluate the Antidepressant Activity of Tramadol in the Treatment of Major Depressive Disorder (MDD).
The investigational drug was administered in tablet form orally, with an initial dose of 200 mg daily for 2 weeks and then maintenance at 200-400 mg daily for a further 14 weeks.
Patients with MDD aged between 18 to 65 years old.
To evaluate the antidepressant activity of tramadol by comparing the change in Ham-D scores of patients with MDD when treated with tramadol as compared with amitriptyline.
Remission is defined as ≦7 on the 17 item Ham-D scale upon completion of week 8 of trial. Response is defined as ≧50% decrease from baseline depression on 17 item Ham-D score upon completion of week 8 of trial. Partial response is defined as <50% but ≧25% decrease from base line depression on 17 item Ham-D Scale. Recovery is defined as at least 8 weeks free from depression, as diagnosed according to DSM-IV-TR criteria.
This was a comparative, single centre, parallel, open-label randomized study in which half of the study population will receive tramadol and the other half will receive amitriptyline.
The primary endpoint is the treatment response of each study subject, as measured on the Ham-D 17-item scale (Hamilton Mass.). Study entry requires a Ham-D score of ≧15. To achieve remission, a cut-off score of ≦7 will be applied. Response will be defined as a ≧50% drop in score and a partial response will be defined as <50% but ≧25% drop in score. Recovery will be defined as at least 8 weeks free of major depression, as diagnosed according to DSM-IV-TR criteria.
In an open-label study comparing the treatment of Major Depressive Disorder with tramadol and amitriptyline, sixteen patients have been enrolled and five have completed the trial protocol. Of those five, three had received tramadol and two had received amitriptyline. […] A further eight patients are displaying solid therapeutic responses and there have been three drop-outs. Information on therapeutic responses of the first 12 patients is summarised below.

## CN(C)CCC=C1c2ccccc2CCc2ccccc21 [Amitriptyline, amitriptyline]
17-item Ham-D score
  Ham-D change: 22 to 0
  Ham-D change (by penultimate visit): 19 to 4 (by penultimate
human, in vivo
  Drop-out because of AE: Dropped out after Visit 2
  Reduction in patient depression, measured using the Hamilton-D rating scale: clinically significant reduction in patient depression

## COc1cccc(C2(O)CCCCC2CN(C)C)c1 (centres unmarked) [Tramadol]
17-item Ham-D score
  Ham-D change: 23 to 0
  Ham-D change (by penultimate visit): 26 to 0 (by penultimate and 26 to 4 (by penultimate (2×)
17-item Ham-D score, baseline to value by visit 4 of 7, individual MDD patient
  Ham-D change (by visit 4 of 7): 18 to 16 (by visit 4 of 7)
  Reduction in patient depression, measured using the Hamilton-D rating scale: clinically significant reduction in patient depression
